How the values were obtained:
[1] = target: human D3R (Homo sapiens, UniProt P35462); test: Radioligand competition binding, [3H]N-methylspiperone, D3R; conditions: ratio of Ki values; Table 2
[2] = Phase I metabolic stability in mouse liver microsomes with NADPH; format: in vitro ADME; conditions: 60 min incubation, 1 μM compound

Chain of human D3R (P35462 whole entry): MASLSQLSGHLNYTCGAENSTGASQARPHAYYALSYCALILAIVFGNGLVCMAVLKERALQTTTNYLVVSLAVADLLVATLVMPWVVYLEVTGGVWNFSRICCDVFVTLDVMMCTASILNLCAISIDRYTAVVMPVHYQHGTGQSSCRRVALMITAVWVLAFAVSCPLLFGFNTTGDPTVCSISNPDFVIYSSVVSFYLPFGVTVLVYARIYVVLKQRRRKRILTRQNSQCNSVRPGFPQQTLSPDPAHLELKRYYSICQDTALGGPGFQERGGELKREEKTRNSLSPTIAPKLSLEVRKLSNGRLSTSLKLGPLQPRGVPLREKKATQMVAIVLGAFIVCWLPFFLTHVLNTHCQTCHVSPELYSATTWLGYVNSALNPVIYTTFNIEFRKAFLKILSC

Substance | Receptor selectivity D2/D3 [1] | percent original compound remaining [2] | Receptor selectivity D4/D3 [1]
1-(4-(2,3-Dichlorophenyl)piperazin-1-yl)-4-(4-(quinolin-3-yl)-1H-1,2,3-triazol-1-yl)butan-2-ol [17b] | 14 | 26% | 
5-(4-(4-(4-(2-Methoxyphenyl)piperazin-1-yl)butyl)-1H-1,2,3-triazol-1-yl)quinoline [9d] | 6.3 |  | 40

Source: article PMC4468002 (Bioorganic & medicinal chemistry, 2015)
